Like-named read-outs stand apart in the source and are kept apart here.

Data on 23 molecules can be found in patent publication US20180099931A1 (AbbVie S.à.r.l., priority 2016, published 2018).

This experiment has as its target T1, F508delCFTR (Homo sapiens, UniProt P13569, DEL508-508).
T1 construct: expressed in transfected cells; host or cells: CFBE41o- human lung-derived epithelial cells (CFBE4lo-F508delCFTR-HRP), doxycycline-inducible
Put plainly: Cell Surface Expression-Horse Radish Peroxidase (CSE-HRP) Assay.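 For Maximum % activity (with co-corrector): co-corrector and positive control are both the same reference corrector at 2 µM.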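 For Maximum % activity (without co-corrector): percent of the 2 µM on-plate positive control corrector response above DMSO.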 In kind it is cell-based. Conditions: CSE-HRP; for Maximum % activity (with co-corrector): with co-corrector (2 μM); for Maximum % activity (with co-corrector) / Emax: maximum at any tested concentration, normalized to on-plate positive control; for Emax: without co-corrector, read-out: Maximum % activity (without co-corrector).

Setting [1] is: test compound without co-corrector, read-out: EC50 (without co-corrector).
Where [2] appears, read: with co-corrector (2 μM of 3-[(2R,4R)-4-({[1-(2,2-difluoro-1,3-benzodioxol-5-yl)cyclopropyl]carbonyl}amino)-7-methoxy-3,4-dihydro-2H-chromen-2-yl]benzoic acid), read-out: EC50 (with co-corrector).

T1 sequence (P13569 with tags, fused parts or gaps DEL508-508): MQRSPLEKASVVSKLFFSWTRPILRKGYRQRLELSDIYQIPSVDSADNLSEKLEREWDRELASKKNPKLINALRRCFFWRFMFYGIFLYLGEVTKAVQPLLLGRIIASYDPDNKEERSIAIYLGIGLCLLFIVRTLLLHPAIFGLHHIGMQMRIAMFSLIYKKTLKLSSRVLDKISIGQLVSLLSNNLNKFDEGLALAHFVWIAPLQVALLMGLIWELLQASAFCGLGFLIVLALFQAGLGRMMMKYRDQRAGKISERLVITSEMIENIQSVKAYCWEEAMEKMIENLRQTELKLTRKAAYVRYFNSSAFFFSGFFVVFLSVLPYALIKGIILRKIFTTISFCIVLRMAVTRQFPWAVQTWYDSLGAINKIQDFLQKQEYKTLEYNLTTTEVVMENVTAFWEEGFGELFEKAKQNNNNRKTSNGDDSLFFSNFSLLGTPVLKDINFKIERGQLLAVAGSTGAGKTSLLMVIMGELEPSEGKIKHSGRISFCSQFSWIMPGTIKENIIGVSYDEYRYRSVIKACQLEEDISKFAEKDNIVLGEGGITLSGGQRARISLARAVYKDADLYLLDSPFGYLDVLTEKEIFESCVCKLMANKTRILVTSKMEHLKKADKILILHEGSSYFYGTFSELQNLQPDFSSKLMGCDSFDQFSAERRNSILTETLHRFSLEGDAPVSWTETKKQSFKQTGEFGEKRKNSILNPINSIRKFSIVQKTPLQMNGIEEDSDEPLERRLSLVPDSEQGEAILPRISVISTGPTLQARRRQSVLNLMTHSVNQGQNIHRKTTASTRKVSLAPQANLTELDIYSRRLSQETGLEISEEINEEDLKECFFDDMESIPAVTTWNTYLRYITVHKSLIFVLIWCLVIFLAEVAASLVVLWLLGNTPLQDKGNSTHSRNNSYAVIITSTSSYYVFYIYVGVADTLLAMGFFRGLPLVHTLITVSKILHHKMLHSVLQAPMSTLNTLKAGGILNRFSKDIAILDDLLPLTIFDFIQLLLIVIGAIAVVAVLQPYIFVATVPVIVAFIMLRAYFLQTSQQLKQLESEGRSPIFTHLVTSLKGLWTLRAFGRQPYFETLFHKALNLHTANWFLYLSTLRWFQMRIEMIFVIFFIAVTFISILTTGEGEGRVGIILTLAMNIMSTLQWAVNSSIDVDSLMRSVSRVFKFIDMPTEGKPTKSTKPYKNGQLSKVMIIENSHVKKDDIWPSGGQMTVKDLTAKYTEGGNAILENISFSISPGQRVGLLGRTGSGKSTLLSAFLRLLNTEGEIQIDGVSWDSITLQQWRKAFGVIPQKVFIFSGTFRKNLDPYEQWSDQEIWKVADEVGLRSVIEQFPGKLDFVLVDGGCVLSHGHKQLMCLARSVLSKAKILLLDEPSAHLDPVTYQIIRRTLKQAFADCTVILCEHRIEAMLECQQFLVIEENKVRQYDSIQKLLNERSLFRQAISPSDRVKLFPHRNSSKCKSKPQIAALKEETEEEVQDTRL

Take `COc1cc(C(F)(F)F)ccc1CN[C@H]1[C@H](C(C)(C)C)[C@@H](C(=O)O)N(C(=O)[C@@H]2CCCCO2)[C@H]1c1cccnc1OC` [II-92]: the “Maximum % activity (with co-corrector)” value is listed as “+++ (≥350)” and the Emax lay in the range of 100 to 200%. For the same molecule, the EC50 (usually the concentration needed to bring the measured effect to its halfway point) under setting [1] fell in the range of 1000 to 10000 nM. Further, the EC50 under setting [2] fell in the range of 1000 to 10000 nM.
For `COc1ccc(C(F)(F)F)cc1CN[C@H]1[C@H](C(C)(C)C)[C@@H](C(=O)O)N(C(=O)C2CCCCC2)[C@H]1c1cccnc1C` [II-93], the “Maximum % activity (with co-corrector)” value was “+++ (≥350)” and the Emax fell in the range of 100 to 200%. Besides, the concentration giving a half-maximal response (EC50) under setting [1] was 1000 to 10000 nM. Moreover, the EC50 under setting [2] was 1000 to 10000 nM.
Regarding `COc1cc(C(F)(F)F)ccc1CN[C@H]1[C@H](C(C)(C)C)[C@@H](C(=O)O)N(C(=O)C2CCCCC2)[C@H]1c1cccnc1C` [II-94], the “Maximum % activity (with co-corrector)” value is “+++ (≥350)” and the Emax is 100 to 200%. In addition, the EC50 under setting [1] is 1000 to 10000 nM. Besides, the EC50 under setting [2] fell in the range of 1000 to 10000 nM.
As for `COc1ccc(Cl)cc1CN[C@H]1[C@H](C(C)(C)C)[C@@H](C(=O)O)N(C(=O)C2CCCCC2)[C@H]1c1cccnc1C` [II-95], the “Maximum % activity (with co-corrector)” value is listed as “+++ (≥350)” and the Emax was less than 100%. For the same molecule, the concentration giving a half-maximal response (EC50) under setting [1] was in the range of 1000 to 10000 nM. Also, under setting [2], the EC50 was 1000 to 10000 nM.
On to `COc1cc(Cl)ccc1CN[C@H]1[C@H](C(C)(C)C)[C@@H](C(=O)O)N(C(=O)C2CCCCC2)[C@H]1c1cccnc1C` [II-96], for which the “Maximum % activity (with co-corrector)” value was “+++ (≥350)” and the Emax was 100 to 200%. In addition, under setting [1], the EC50 lay in the range of 1000 to 10000 nM. Also, the EC50 under setting [2] is 1000 to 10000 nM.
Consider `COc1ccc(Cl)cc1CN[C@H]1[C@H](C(C)(C)C)[C@@H](C(=O)O)N(C(=O)C2CCCCC2)[C@H]1c1ccccc1` [II-97], for which the “Maximum % activity (with co-corrector)” value was “+++ (≥350)” and the Emax is greater than 200%. The EC50 under setting [1] is 1000 to 10000 nM. Besides, the EC50 under setting [2] is less than 1000 nM.
The matching figures for `COc1cc(Cl)ccc1CN[C@H]1[C@H](C(C)(C)C)[C@@H](C(=O)O)N(C(=O)C2CCCCC2)[C@H]1c1ccccc1` [II-99]: “+++ (≥350)”, 100 to 200%, 1000 to 10000 nM and 1000 to 10000 nM.
As for `CC(C)(C)[C@H]1[C@H](NCc2coc3ccccc23)[C@H](c2ccccc2)N(C(=O)C2CCCCC2)[C@@H]1C(=O)O` [II-100], the “Maximum % activity (with co-corrector)” value is “++ (≥150 and <350)”; the Emax was less than 100%. Besides, the concentration for a half-maximal effect (EC50) under setting [1] was 1000 to 10000 nM. For the same molecule, under setting [2], the EC50 fell in the range of 1000 to 10000 nM.
Turning to `COc1cc(C(C)(C)C)ccc1CN[C@H]1[C@H](C(C)(C)C)[C@@H](C(=O)O)N(C(=O)C2CCCCC2)[C@H]1c1cccnc1OC` [II-101], the “Maximum % activity (with co-corrector)” value was “+++ (≥350)” and the Emax was 100 to 200%. In addition, under setting [1], the EC50 fell in the range of 1000 to 10000 nM. Moreover, the EC50 under setting [2] fell in the range of 1000 to 10000 nM.
Regarding `COc1cc(C(C)(C)C)ccc1CN[C@H]1[C@H](C(C)(C)C)[C@@H](C(=O)O)N(C(=O)C2CCCCC2)[C@H]1c1cccnc1N(C)C` [II-102], the “Maximum % activity (with co-corrector)” value is on record as “+++ (≥350)” and the Emax was 100 to 200%. Besides, the EC50 under setting [1] fell in the range of 1000 to 10000 nM. Moreover, under setting [2], the EC50 is less than 1000 nM.
The matching figures for `COc1cc(C(C)(C)C)ccc1CN[C@H]1[C@H](C(C)(C)C)[C@@H](C(=O)O)N(C(=O)C2CCCCC2)[C@H]1c1ccccc1` [II-103]: “+++ (≥350)”, 100 to 200%, 1000 to 10000 nM and 1000 to 10000 nM.
Consider `COc1cc(CN[C@H]2[C@H](C(C)(C)C)[C@@H](C(=O)O)N(C(=O)C3CCCCC3)[C@H]2c2ccccc2)c(F)cc1Cl` [II-104], for which the “Maximum % activity (with co-corrector)” value was “++ (≥150 and <350)”; the Emax was less than 100%. The half-maximal effective concentration (EC50) under setting [1] lay in the range of 1000 to 10000 nM. Also, under setting [2], the EC50 was in the range of 1000 to 10000 nM.
For the molecule `CC(C)(C)[C@H]1[C@H](NCc2cc(Cl)ccc2Cl)[C@H](c2ccccc2)N(C(=O)C2CCCCC2)[C@@H]1C(=O)O` [II-105], the “Maximum % activity (with co-corrector)” value was “+++ (≥350)” and the Emax was less than 100%. Further, the EC50 under setting [1] lay within 1000 to 10000 nM. Also, under setting [2], the EC50 lay within 1000 to 10000 nM.
On to `COc1ccc(F)c(CN[C@H]2[C@H](C(C)(C)C)[C@@H](C(=O)O)N(C(=O)C3CCCCC3)[C@H]2c2ccccc2)c1` [II-106], for which the “Maximum % activity (with co-corrector)” value was “++ (≥150 and <350)”; the Emax is less than 100%. Further, the EC50 under setting [1] fell in the range of 1000 to 10000 nM. The EC50 under setting [2] fell in the range of 1000 to 10000 nM.
`CC(C)(C)[C@H]1[C@H](NCc2cc(Cl)ccc2OC(F)F)[C@H](c2ccccc2)N(C(=O)C2CCCCC2)[C@@H]1C(=O)O` [II-107]: the “Maximum % activity (with co-corrector)” value is reported as “+++ (≥350)” and the Emax is less than 100%. Besides, the EC50 under setting [1] is less than 1000 nM. Further, the EC50 under setting [2] is 1000 to 10000 nM.
The corresponding values for `CC(C)(C)[C@H]1[C@H](NCc2cc(C(F)(F)F)cc(C(F)(F)F)c2)[C@H](c2ccccc2)N(C(=O)C2CCCCC2)[C@@H]1C(=O)O` [II-108] are “+++ (≥350)”, less than 100%, 1000 to 10000 nM and 1000 to 10000 nM.
On to `COc1ccc(CN[C@H]2[C@H](C(C)(C)C)[C@@H](C(=O)O)N(C(=O)C3CCCCC3)[C@H]2c2ccccc2)c(C(F)(F)F)c1` [II-109], for which the “Maximum % activity (with co-corrector)” value was “++ (≥150 and <350)”; the Emax is less than 100%. Further, the EC50 under setting [1] is less than 1000 nM. The EC50 under setting [2] lay within 1000 to 10000 nM.
As to `COc1ccc(Br)c(CN[C@H]2[C@H](C(C)(C)C)[C@@H](C(=O)O)N(C(=O)C3CCCCC3)[C@H]2c2ccccc2)c1` [II-110], the “Maximum % activity (with co-corrector)” value was “+++ (≥350)” and the Emax was less than 100%. Moreover, under setting [1], the EC50 lay in the range of 1000 to 10000 nM. Further, under setting [2], the EC50 was 1000 to 10000 nM.
For the molecule `CC(C)(C)[C@H]1[C@H](NCc2cc(Cl)cc(Cl)c2)[C@H](c2ccccc2)N(C(=O)C2CCCCC2)[C@@H]1C(=O)O` [II-111], the “Maximum % activity (with co-corrector)” value was “++ (≥150 and <350)”; the Emax was less than 100%. For the same molecule, under setting [1], the EC50 lay within 1000 to 10000 nM. The EC50 under setting [2] was in the range of 1000 to 10000 nM.
For the molecule `COc1cc(CN[C@H]2[C@H](C(C)(C)C)[C@@H](C(=O)O)N(C(=O)C3CCCCC3)[C@H]2c2ccccc2)ccc1F` [II-112], the “Maximum % activity (with co-corrector)” value was “++ (≥150 and <350)”; the Emax was less than 100%. The EC50 under setting [1] was greater than 10000 nM. Further, under setting [2], the EC50 is 1000 to 10000 nM.
With `CC(C)(C)[C@H]1[C@H](NCc2ccc(Cl)cc2Cl)[C@H](c2ccccc2)N(C(=O)C2CCCCC2)[C@@H]1C(=O)O` [II-113], the “Maximum % activity (with co-corrector)” value is listed as “+++ (≥350)” and the Emax was less than 100%. Also, the EC50 under setting [1] is less than 1000 nM. The concentration giving a half-maximal response (EC50) under setting [2] lay within 1000 to 10000 nM.
The matching figures for `COc1cc(CN[C@H]2[C@H](C(C)(C)C)[C@@H](C(=O)O)N(C(=O)C3CCCCC3)[C@H]2c2ccccc2)c(Br)cc1F` [II-114]: “+++ (≥350)”, less than 100%, less than 1000 nM and 1000 to 10000 nM.
For the molecule `CC(C)(C)[C@H]1[C@H](NCc2cc(F)cc(F)c2)[C@H](c2ccccc2)N(C(=O)C2CCCCC2)[C@@H]1C(=O)O` [II-115], the “Maximum % activity (with co-corrector)” value is “++ (≥150 and <350)”; the Emax was less than 100%. Moreover, under setting [1], the concentration giving a half-maximal response (EC50) was greater than 10000 nM. For the same molecule, the EC50 under setting [2] lay within 1000 to 10000 nM.
